Our source for the % of inhibition and % of control values is ChEMBL document CHEMBL5465560, “Selectivity Literature for EUbOPEN Chemogenomic Library” (2024).

Assay [1] addresses Epidermal growth factor receptor (Homo sapiens, UniProt P00533). The assay is described as follows: Selectivity interaction (Rxn Biology Kinase assay) EUB0001632a EGFR. Particulars: at 10 µM.
The target of assay [2] is Mitogen-activated protein kinase kinase kinase 11 (Homo sapiens) (UniProt Q16584). The assay is described as follows: Selectivity interaction (KinomeScan (DiscoverX)) EUB0000595a MAP3K11. Particulars: at 10 µM.
For assay [3], the target named is T1, Serine/threonine-protein kinase Chk1 (Homo sapiens) (UniProt O14757).
T1 sequence (whole entry): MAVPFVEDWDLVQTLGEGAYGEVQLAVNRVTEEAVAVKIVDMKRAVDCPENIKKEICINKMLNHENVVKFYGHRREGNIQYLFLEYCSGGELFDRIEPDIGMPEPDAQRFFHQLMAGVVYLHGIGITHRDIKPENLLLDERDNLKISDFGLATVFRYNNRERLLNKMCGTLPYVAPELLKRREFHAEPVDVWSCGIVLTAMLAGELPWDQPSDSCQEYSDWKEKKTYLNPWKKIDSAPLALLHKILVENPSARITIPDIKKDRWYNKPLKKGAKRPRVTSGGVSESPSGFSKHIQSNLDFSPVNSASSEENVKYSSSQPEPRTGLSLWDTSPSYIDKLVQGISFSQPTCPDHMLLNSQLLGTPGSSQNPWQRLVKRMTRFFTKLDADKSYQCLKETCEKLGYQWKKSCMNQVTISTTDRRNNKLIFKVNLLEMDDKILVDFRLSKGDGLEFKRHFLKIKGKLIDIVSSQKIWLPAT
Particulars: at 10 µM.

The test system of assay [4] is Tyrosine-protein kinase ABL1 (Homo sapiens), P00519 [F317L]. Kind of assay: Selectivity interaction (KinomeScan (DiscoverX)) EUB0000607a ABL1. Particulars: at 10 µM.
Assay [5] concerns the target T2, Aurora kinase A (Homo sapiens) (UniProt O14965).
T2 sequence (whole entry): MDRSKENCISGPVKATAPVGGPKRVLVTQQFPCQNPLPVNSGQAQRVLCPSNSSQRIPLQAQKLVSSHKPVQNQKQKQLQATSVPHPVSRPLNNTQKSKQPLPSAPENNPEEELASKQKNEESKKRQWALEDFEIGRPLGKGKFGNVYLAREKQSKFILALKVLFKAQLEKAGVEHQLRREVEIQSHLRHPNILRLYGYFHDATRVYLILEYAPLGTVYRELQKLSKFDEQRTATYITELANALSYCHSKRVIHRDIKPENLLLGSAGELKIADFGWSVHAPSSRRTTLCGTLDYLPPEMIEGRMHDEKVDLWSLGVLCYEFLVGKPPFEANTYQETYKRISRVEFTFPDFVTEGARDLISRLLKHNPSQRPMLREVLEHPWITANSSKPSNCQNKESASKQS
The assay is described as follows: Selectivity interaction (ActivX KiNativ screen (kinase selectivity in THP-1 cell lysates)) EUB0000639a STK6. The format is subcellular. Particulars: lysate.

Assay [6] addresses Cyclin-dependent kinase 14 (Homo sapiens) (UniProt O94921). The assay is described as follows: Selectivity interaction (ActivX KiNativ screen (kinase selectivity in THP-1 cell lysates)) EUB0000639a CDK14. The format is subcellular. Particulars: lysate, at 0.01 µM.
Assay [7] deals with T3, Dual specificity mitogen-activated protein kinase kinase 7 (Homo sapiens) (UniProt O14733).
T3 sequence (whole entry): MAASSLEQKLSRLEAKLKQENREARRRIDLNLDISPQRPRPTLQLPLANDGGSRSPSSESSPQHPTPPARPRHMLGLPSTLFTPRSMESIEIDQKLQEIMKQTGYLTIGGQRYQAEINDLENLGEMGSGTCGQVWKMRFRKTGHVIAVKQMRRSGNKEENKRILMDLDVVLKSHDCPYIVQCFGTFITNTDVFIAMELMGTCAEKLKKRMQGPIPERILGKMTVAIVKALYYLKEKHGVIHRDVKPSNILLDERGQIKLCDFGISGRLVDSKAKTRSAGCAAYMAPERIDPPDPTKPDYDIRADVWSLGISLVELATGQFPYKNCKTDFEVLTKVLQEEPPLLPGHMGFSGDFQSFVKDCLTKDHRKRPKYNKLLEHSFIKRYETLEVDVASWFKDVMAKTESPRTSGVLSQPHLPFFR
The assay is described as follows: Selectivity interaction (KinomeScan (DiscoverX)) EUB0000045b MAP2K7.

Assay [8] addresses T4, Mitogen-activated protein kinase 13 (Homo sapiens) (UniProt O15264).
T4 sequence (whole entry): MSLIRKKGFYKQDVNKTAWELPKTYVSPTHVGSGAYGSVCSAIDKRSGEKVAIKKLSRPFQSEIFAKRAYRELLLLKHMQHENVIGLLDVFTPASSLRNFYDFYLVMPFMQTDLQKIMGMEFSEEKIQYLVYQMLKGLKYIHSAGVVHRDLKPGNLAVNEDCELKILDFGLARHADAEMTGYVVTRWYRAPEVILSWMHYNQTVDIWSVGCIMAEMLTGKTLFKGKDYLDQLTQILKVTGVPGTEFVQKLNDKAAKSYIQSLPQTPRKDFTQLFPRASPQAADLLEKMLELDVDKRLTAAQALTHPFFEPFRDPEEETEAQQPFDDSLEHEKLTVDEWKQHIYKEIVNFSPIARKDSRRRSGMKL
The assay is described as follows: Selectivity interaction (Upstate Kinase Profiler service (Millipore)) EUB0000056c MAPK13. Particulars: at 1 µM.

Assay [9] has as its target T5, Uncharacterized serine/threonine-protein kinase SBK3 (Homo sapiens) (UniProt P0C264).
T5 sequence (whole entry): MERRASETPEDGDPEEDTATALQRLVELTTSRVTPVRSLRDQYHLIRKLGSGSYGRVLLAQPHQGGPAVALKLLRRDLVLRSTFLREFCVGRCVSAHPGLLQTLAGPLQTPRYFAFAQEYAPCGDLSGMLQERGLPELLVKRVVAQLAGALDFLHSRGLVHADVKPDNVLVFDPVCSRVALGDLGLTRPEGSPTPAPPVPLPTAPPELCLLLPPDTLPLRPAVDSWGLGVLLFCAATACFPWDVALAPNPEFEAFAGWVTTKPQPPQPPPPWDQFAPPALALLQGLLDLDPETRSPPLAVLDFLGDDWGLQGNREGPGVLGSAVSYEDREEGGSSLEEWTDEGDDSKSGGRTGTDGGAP
The assay is described as follows: Selectivity interaction (KinomeScan (DiscoverX)) EUB0001079a SBK3. Particulars: at 1 µM.

Structures are written as SMILES.

Cyclin-dependent kinase 14 (Homo sapiens), sequence (O94921 whole entry): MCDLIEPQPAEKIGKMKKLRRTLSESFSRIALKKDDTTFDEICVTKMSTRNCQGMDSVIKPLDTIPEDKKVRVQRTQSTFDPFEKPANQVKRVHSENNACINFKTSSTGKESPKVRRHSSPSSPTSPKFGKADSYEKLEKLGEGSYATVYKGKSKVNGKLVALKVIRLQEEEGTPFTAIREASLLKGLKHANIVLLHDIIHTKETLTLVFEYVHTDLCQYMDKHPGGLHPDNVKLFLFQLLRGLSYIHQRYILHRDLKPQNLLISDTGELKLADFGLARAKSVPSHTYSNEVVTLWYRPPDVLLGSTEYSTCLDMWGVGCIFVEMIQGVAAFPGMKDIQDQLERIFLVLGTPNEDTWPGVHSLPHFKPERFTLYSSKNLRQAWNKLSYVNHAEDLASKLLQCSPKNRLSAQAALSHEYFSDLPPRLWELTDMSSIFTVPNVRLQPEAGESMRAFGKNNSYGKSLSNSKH
Tyrosine-protein kinase ABL1 (Homo sapiens), P00519 [F317L], sequence (P00519 whole entry F317L): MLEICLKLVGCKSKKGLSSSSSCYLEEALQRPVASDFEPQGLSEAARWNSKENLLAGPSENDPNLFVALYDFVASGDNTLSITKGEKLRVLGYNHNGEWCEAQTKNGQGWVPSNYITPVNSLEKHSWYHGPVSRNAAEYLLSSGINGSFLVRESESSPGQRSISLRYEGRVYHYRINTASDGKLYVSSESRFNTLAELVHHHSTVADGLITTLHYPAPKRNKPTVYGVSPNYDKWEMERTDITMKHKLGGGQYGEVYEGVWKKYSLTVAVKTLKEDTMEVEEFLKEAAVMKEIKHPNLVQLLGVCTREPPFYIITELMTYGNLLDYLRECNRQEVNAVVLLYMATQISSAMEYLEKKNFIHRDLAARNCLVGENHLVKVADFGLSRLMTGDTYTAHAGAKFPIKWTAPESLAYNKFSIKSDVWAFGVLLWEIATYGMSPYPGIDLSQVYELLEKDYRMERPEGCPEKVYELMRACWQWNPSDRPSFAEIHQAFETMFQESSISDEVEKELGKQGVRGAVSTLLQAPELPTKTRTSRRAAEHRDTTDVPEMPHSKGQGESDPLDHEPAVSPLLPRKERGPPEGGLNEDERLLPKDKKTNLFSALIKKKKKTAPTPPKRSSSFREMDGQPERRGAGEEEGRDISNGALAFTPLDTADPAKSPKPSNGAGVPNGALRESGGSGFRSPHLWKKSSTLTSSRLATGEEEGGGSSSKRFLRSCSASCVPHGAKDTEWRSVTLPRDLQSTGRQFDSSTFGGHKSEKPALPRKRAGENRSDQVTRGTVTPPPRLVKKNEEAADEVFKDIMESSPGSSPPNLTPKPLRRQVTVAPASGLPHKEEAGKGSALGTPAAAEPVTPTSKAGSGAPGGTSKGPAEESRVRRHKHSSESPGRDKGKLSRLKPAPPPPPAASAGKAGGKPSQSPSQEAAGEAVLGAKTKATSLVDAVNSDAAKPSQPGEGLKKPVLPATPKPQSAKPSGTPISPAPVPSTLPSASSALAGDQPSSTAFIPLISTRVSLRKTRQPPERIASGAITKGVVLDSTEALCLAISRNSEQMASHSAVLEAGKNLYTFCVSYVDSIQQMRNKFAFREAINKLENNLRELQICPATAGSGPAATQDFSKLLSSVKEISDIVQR
Epidermal growth factor receptor, sequence (P00533 whole entry): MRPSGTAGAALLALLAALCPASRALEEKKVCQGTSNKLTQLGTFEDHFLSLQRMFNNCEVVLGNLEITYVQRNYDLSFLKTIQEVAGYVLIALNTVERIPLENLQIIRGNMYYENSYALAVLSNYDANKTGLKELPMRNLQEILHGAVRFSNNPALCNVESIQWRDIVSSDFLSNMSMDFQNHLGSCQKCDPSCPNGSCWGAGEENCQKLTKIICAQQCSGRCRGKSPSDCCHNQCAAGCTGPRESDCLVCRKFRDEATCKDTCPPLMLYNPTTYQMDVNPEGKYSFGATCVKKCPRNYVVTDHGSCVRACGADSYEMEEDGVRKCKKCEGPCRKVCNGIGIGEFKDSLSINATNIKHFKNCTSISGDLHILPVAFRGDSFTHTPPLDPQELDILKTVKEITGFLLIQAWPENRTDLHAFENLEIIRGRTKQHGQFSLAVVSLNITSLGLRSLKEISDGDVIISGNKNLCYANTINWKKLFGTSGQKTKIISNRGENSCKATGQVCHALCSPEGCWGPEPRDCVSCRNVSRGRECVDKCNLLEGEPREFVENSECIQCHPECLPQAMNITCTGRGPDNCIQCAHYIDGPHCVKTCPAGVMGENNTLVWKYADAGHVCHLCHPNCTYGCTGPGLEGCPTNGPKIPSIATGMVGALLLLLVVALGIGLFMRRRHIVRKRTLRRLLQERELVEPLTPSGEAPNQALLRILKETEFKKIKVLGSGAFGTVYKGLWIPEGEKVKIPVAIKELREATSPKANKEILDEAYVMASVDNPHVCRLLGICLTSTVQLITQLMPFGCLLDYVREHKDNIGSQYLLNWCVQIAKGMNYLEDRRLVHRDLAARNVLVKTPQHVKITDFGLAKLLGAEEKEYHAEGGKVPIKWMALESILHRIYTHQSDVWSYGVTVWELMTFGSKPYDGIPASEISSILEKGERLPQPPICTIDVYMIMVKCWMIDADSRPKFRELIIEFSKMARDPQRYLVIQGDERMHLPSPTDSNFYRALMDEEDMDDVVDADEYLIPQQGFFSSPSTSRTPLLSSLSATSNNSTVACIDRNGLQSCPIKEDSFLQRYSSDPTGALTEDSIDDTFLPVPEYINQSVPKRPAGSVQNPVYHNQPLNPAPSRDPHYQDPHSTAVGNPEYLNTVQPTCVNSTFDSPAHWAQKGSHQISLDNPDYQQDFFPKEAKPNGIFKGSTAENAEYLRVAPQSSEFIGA
Mitogen-activated protein kinase kinase kinase 11 (Homo sapiens), sequence (Q16584 whole entry, looked up): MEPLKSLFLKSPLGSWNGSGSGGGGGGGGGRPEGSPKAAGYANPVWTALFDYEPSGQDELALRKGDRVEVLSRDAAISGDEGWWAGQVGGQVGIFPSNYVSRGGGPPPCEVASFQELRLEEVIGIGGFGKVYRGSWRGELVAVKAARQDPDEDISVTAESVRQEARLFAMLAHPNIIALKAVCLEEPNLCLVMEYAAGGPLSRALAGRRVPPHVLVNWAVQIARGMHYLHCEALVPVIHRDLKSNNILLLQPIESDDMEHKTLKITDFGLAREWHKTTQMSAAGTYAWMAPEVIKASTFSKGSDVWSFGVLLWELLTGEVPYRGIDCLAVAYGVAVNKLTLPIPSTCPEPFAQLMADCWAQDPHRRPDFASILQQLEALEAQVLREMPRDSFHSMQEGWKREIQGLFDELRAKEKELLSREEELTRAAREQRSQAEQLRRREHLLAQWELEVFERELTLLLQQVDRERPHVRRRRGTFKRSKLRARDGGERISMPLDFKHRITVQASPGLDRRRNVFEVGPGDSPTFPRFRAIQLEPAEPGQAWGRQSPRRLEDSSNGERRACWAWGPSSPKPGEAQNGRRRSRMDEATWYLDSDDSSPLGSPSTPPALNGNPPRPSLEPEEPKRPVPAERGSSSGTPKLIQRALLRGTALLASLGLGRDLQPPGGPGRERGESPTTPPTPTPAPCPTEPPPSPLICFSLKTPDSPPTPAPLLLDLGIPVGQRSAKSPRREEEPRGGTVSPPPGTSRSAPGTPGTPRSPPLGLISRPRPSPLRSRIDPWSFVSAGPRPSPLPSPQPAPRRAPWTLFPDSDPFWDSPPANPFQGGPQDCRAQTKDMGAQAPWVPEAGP

For the compound `Cn1cc(-n2cnc3c(NCc4nc5cc(Cl)c(Cl)cc5[nH]4)nc(N4CCOCC4)nc32)cn1`, the % of inhibition in assay [1] was determined as 3.44%.

`COCC(=O)NC/C=C/c1ccc2ncnc(Nc3ccc(Oc4ccc(C)nc4)c(C)c3)c2c1` [CP-724714] displayed a % of control in assay [2] of 92%. For `CCN(CC)CCCCNc1ncc2cc(-c3cc(OC)cc(OC)c3)c(NC(=O)NC(C)(C)C)nc2n1`, the % of control in assay [3] was 100%. In [4], `CNC(=O)Nc1ccc(-c2nc(N3CC4CCC(C3)O4)c3cnn(C4CCC5(CC4)OCCO5)c3n2)cc1` yielded a % of control of 96%. As to `CC[C@@H]1[C@H](F)C(=O)N[C@@H]1COc1nccc2cc(C(N)=O)c(OC)cc12` [ZIMLOVISERTIB], the % of inhibition in assay [5] (at 0.01 µM) is -0.7%; in assay [5] (at 0.04 µM) it was -2.4%; in assay [5] (at 0.2 µM), 2.8%; in assay [5] (at 1 µM), 26.7%; in [5] (at 5 µM), 59.9%; in assay [6], -16.8%. Take `C=CC(=O)Nc1cc(-n2c(=O)ccc3cnc4ccc(-c5ccc(NS(C)(=O)=O)cc5)cc4c32)ccc1C`: the figures for the % of control in [7] (at 1 µM) and in assay [7] (at 10 µM) were 49% and 6.1%, respectively. Regarding `Cc1ccc(-c2ccc3c(ccc4sc5c(c43)NC[C@@H](C)NC5=O)n2)cn1`, the % of inhibition in assay [8] is 6%. The compound `Nc1cnc(N2CCc3cc(S(=O)(=O)Nc4c(F)cc(Cl)cc4F)cc(N4CCCC4=O)c32)nc1` [TP-020n] registered a % of control in assay [9] of 100%.
